# Values of other authors in patent publication US8518429B2, “Arsenic trioxide medical elution scaffold” (Beijing Amsino Medical Co., Ltd., priority 2007, dated 2013).
# Columns and labels:
# promyelocytic leukemia = conditions: used by hematologists in 1970s
# VSMCs = conditions: found by Zhuoqi ZHANG et al. and Jianwei SHAO et al.
substance,measurement,setting,value
Arsenic trioxide [As2O3],therapeutic effect in promyelocytic leukemia,promyelocytic leukemia,notable therapeutic effect
same,effects on VSMCs,VSMCs,"anti-proliferation, apoptosis promotion and cell cycle arrest"
